The results in this text go back to US20180279615A1 (priority 2015, published 2018).

The subject of the assay is Botrytis cinerea. In words: Activity against the grey mold Botrytis cinerea in the microtiterplate test. The class given is cell-based. The conditions noted are these: comparative examples, measured at 405 nm 7 days after inoculation.

Each structure is given as a SMILES string.

As to `Cc1cc(C2=NC(C)(C)Cc3ccccc32)cnc1C`, the “Growth (%) at 32 ppm” value is listed as 51%.

With `Cc1cc(C2=NC(C)(C)C(C)c3ccccc32)cnc1C` (centres unmarked) [I-1, 1-(5,6-dimethyl-3-pyridyl)-3,3,4-trimethyl-4H-isoquinoline], the “Growth (%) at 32 ppm” value came to 0%.
